The IC50 is the point on the concentration scale where inhibition reaches its midpoint.

Read-outs that look alike come from different tables or passages of the source.

Here are results for 3 compounds from PMC12692968, “Design, Synthesis, Molecular Docking, and Anticancer Activity of Chalcone Derivatives as VEGFR-2 Inhibitors” (Molecules, 2025).

For data set [1], the system named is K562 cells. The experiment in a line: Annexin V apoptosis assay by flow cytometry. Type of data set: cell-based, human. From the text: Enhancing apoptotic cell death is a crucial way for anticancer drugs to eliminate cancer cells.
The sample was centrifuged to isolate the cells and the kit instructions were followed for subsequent processing. Finally, apoptosis was quantified using a flow cytometer (Cytek Northern Light 3 Laser 16V-14B-8R, Wuxi, China). The experiments were replicated three times.
On the technique in general: In flow cytometry, cells or beads pass a laser one at a time.

The test system of data set [2] is human cervical squamous cell carcinoma cell line SiHa. Kind of data set: CCK-8 cytotoxicity assay, SiHa cells. The data set is classed as cell-based. Conditions: CCK-8, 48 h incubation, mean ± SD, n = 3. The method, then: (§1) The SiHa, K562, B16 and HK-2 cells were obtained from Wuhan Pricella Biotechnology Co., Ltd. (Wuhan, China). […] 2–5 × 10^3 cells were added to each well of a 96-well plate and incubated for 12 h, followed by the addition of the tested compounds. After incubation for 48 h, 10 μL of the CCK-8 solution was added to each well and incubated for another 2 h. The absorbance of each well was measured at 450 nm using an enzyme-linked immunosorbent assay (ELISA) reader. The experiments were replicated three times. The inhibition rate of cancer cells was calculated using the Formula (1). The half-maximal inhibitory concentration (IC50) value was calculated using GraphPad Prism 8.0 software.

Data set [3] is described as follows: CCK-8 cytotoxicity assay, HK-2 cells. Type of data set: cell-based, human. The method, then: as §1, with “The cytotoxicity of synthesized compounds against HK-2 cells was also detected. […] The SiHa,” for “The SiHa,”
In data set [4] the test system is human renal epithelial cell line HK-2. Kind of data set: CCK-8 cytotoxicity assay, HK-2 cells. Type of data set: cell-based. The settings on record: Homo sapiens, Epithelial cell; CCK-8, 48 h incubation, mean ± SD, n = 3. The method, then: as §1, with “The cytotoxicity of synthesized compounds against HK-2 cells was also detected. […] The SiHa,” for “The SiHa,”
(In general: Formazan colour is commonly taken as a measure of viable cells.)

The target in data set [5] is T1, VEGFR-2 (KDR) protein kinase (Homo sapiens, UniProt P35968).
T1 construct: purchased BPS Biosciences, San Diego, CA, USA
T1 sequence (P35968 20-1356): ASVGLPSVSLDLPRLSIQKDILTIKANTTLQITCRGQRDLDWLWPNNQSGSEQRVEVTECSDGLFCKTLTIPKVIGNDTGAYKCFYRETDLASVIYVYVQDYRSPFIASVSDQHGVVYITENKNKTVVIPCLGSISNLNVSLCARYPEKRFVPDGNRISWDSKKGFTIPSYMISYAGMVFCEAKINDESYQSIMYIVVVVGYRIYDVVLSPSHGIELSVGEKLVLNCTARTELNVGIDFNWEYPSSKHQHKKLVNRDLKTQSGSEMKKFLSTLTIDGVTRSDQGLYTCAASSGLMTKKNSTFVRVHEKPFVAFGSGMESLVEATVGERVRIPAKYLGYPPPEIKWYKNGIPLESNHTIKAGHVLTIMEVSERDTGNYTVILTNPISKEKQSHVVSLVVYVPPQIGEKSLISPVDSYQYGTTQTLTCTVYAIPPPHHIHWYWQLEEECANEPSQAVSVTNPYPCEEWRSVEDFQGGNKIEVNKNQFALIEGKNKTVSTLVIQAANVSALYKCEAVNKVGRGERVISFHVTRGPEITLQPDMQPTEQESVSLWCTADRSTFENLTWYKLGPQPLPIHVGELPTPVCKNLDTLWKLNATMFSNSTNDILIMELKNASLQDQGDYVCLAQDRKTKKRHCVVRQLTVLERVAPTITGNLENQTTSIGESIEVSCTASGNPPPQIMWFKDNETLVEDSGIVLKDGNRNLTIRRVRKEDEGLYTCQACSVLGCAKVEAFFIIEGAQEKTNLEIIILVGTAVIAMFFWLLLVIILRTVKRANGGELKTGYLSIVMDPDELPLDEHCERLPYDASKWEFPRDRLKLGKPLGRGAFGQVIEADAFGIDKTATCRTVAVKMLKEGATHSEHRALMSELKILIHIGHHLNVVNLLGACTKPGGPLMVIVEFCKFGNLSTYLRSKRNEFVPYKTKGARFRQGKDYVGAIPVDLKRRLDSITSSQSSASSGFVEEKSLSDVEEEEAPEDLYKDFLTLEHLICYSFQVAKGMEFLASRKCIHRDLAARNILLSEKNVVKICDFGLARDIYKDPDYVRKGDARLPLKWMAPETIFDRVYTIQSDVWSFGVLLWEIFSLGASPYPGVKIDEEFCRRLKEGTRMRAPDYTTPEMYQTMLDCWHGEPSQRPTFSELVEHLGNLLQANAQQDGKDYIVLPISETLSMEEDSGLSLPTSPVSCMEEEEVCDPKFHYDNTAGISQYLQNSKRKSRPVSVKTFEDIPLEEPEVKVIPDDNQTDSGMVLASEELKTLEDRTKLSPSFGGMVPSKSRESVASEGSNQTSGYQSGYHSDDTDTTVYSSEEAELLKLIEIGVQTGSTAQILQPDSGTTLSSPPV
The experiment in a line: VEGFR-2 (KDR) Kinase Assay Kit enzyme inhibition assay. The data set is classed as biochemical. The settings on record: Kinase-Glo MAX, 30 °C 45 min, mean ± SD, n = 3. The method, then: Many studies have shown that abnormal VEGFR-2 signaling could induce proliferation of cervical squamous cell carcinoma cells, myeloid leukemia cancer cells, and melanoma cells. […] A VEGFR-2 (KDR) Kinase Assay Kit (BPS Biosciences, San Diego, CA, USA) was used to conduct a VEGFR-2 inhibition assay following the manufacturer’s protocol. Briefly, kinase buffer and ATP and PTK substrate (Poly-Glu,Tyr 4:1) were diluted with distilled water to prepare a master mix solution. The master mix solution, test sample, and VEGFR-2 (KDR) protein kinase (2 ng/μL) were added to a 96-well plate and incubated at 30 °C for 45 min. After incubation, Kinase-Glo™ MAX (BPS Biosciences) reagent was added to each well, and incubated for 15 min at room temperature. Then it was immediately detected with an ELISA reader. The experiments were replicated three times.
On the technique in general: In Kinase-Glo more light means more ATP remaining.

The test system of data set [6] is K562 cells. Kind of data set: Cell cycle analysis, PI staining, flow cytometry. The data set is classed as cell-based, human. Conditions: 5 μM, 24 h. The method, then:
Cytotoxic compounds often inhibit cell proliferation by arresting the cell cycle at a specific phase.
The sample was then centrifuged (2000 rpm for 5 min), and the supernatant was aspirated. The fixed cells were resuspended in 0.5 mL of PI solution, cultured at 37 °C in the dark for 30 min, and then cultured at 4 °C in the dark for another 30 min Finally, the cell cycle sample was determined with a flow cytometer (Cytek Northern Light 3 laser 16V-14B-8R, Wuxi, China). The experiments were replicated three times.

For data set [7], the system named is mouse melanoma cell line B16. Kind of data set: CCK-8 cytotoxicity assay, B16 cells. The data set is classed as cell-based. The settings on record: CCK-8, 48 h incubation, mean ± SD, n = 3. The method, then:
as §1

The test system of data set [8] is human chronic myeloid leukemia cell line K562. The experiment in a line: CCK-8 cytotoxicity assay, K562 cells. The data set is classed as cell-based. Conditions: CCK-8, 48 h incubation, mean ± SD, n = 3. The method, then: as §1
The next data set has as its system VEGFR-2. Conditions: reported chalcone VEGFR-2 inhibitors, Figure 1; cited from earlier work.
The mark [9] stands for this setting: K562, 1.25, 2.5 and 5.0 μM, 24 h.

As for `O=C(Nc1ccc(C(=O)/C=C/c2cc(F)cc(F)c2)cc1)Nc1ccc(Cl)c(C(F)(F)F)c1` [Compound 2l, (E)-1-(4-chloro-3-(trifluoromethyl)phenyl)-3-(4-(3-(3,5-difluorophenyl)acryloyl)phenyl)urea], the viability at 1.25 µM in the data set on K562 cells [1] (Homo sapiens, K562, 1.25 μM, plot in Figure 2, read-out: Q4 viable cells) amounted to 92.8%. The viability at 2.5 µM in the data set on K562 cells [1] (Homo sapiens, K562, 2.5 μM, plot in Figure 2, read-out: Q4 viable cells) turned out to be 90.5%. In the data set on K562 cells [1] (Homo sapiens, K562, 5.0 μM, plot in Figure 2, read-out: Q4 viable cells), the viability at 5 µM worked out at 38.8%. Besides, the early apoptosis came out at 5.80% in the data set with K562 cells [1] (K562, 1.25 μM, 24 h); 8.34% in the data set on K562 cells [1] (K562, 2.5 μM, 24 h); 57.79% in the data set with K562 cells [1] (K562, 5.0 μM, 24 h). For the same compound, the late apoptosis result in the data set with K562 cells [1] (setting [9]) is reported as “increased in a dose-dependent manner”. Further, the “necrosis of K562 cells” value in the data set with K562 cells [1] (setting [9]) was “Almost no necrosis”. Further, the half-inhibitory concentration (IC50) in data set [2] was 1250 ± 130 nM; in data set [2] (Homo sapiens, SiHa, 48 h), 1250 to 1390 nM; in data set [4] it was 25400 ± 1470 nM; in [5], 420 ± 30 nM; in [7], 1390 ± 210 nM; in data set [7] (Mus musculus, B16, 48 h) it was 1250 to 1390 nM. The concentration for half-maximal inhibition (IC50) in data set [8] amounted to 1300 ± 70 nM; in [8] (Homo sapiens, K562, 48 h) it was 910 ± 70 nM. Besides, the selectivity ratio at 48 h in data set [3] (human (HK-2), mouse (B16), HK-2 cells versus B16 cells, HK-2 vs B16, read-out: selectivity toward B16, fold decrease in cytotoxicity against HK-2) was determined as 18.2; in data set [3] (human, HK-2 cells versus K562 cells, HK-2 vs K562, read-out: selectivity toward K562, fold decrease in cytotoxicity against HK-2) it was 19.5; in data set [3] (human, HK-2 cells versus SiHa cells, HK-2 vs SiHa, read-out: selectivity toward SiHa, fold decrease in cytotoxicity against HK-2), 20.3. Moreover, in the data set on K562 cells [6] (DMSO 8.00%), the “percentage of K562 cells in the G2/M phase” value was found to be 3.05%. Also, the “percentage of K562 cells in the S phase” value in the data set on K562 cells [6] (DMSO 43.34%) is on record as 43.83%. In the data set with K562 cells [6] (DMSO 48.66%), the “percentage of K562 cells in the G1 phase” value was found to be 53.12%.
On to `CNC(=O)c1cc(Oc2ccc(C(=O)/C=C/c3cc(OC)c(OC)c(OC)c3)cc2)ccn1` [II], for which the half-inhibitory concentration (IC50) in the data set on VEGFR-2 was 3200 nM.
`COc1cc(/C=C/C(=O)c2ccc(N3CCNCC3)cc2)ccc1F` [I]: in the data set with VEGFR-2, the concentration for half-maximal inhibition (IC50) was 570 nM.
